We go through 20 molecules from ChEMBL document CHEMBL3991601, “The target landscape of clinical kinase drugs” (Science, 2017).

Broadly, the Kd is the constant that tells how readily two partners part at equilibrium.

Assay [1] addresses T1, Serine/threonine-protein kinase Nek1 (Homo sapiens, UniProt Q96PY6).
T1 sequence (Q96PY6 whole entry): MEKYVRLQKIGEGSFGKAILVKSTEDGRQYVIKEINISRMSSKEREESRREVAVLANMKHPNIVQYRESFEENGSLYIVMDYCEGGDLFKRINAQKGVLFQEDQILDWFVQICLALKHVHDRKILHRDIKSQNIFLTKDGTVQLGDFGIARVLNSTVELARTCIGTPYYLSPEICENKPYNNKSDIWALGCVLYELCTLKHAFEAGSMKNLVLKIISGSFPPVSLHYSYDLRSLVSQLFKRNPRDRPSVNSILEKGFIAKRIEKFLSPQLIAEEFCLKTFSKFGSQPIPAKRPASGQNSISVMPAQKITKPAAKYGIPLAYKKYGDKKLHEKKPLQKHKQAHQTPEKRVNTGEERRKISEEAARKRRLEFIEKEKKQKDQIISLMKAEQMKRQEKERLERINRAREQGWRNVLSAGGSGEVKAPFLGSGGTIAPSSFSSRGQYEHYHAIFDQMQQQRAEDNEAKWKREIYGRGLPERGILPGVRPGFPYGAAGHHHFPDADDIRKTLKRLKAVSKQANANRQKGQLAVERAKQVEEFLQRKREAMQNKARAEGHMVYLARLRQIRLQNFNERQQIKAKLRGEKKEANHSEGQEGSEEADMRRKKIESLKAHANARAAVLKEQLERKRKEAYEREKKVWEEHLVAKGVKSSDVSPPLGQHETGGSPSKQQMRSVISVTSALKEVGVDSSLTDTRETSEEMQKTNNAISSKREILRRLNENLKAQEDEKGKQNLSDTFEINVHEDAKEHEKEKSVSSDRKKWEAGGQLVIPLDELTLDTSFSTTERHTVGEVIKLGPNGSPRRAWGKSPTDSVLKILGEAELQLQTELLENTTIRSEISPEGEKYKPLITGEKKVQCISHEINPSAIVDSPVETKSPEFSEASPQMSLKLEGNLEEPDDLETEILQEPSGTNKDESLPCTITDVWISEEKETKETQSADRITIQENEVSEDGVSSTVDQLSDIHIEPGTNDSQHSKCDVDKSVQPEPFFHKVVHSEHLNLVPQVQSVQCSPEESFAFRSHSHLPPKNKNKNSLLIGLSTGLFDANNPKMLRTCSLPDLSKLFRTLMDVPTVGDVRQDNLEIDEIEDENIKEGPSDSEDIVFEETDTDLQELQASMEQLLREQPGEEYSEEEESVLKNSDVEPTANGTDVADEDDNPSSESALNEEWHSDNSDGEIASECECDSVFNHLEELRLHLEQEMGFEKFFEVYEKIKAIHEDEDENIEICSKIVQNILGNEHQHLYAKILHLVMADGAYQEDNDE

The target of assay [2] is Calcium/calmodulin-dependent protein kinase type II subunit gamma (Homo sapiens, UniProt Q13555).
Sequence of Calcium/calmodulin-dependent protein kinase type II subunit gamma (Q13555 whole entry): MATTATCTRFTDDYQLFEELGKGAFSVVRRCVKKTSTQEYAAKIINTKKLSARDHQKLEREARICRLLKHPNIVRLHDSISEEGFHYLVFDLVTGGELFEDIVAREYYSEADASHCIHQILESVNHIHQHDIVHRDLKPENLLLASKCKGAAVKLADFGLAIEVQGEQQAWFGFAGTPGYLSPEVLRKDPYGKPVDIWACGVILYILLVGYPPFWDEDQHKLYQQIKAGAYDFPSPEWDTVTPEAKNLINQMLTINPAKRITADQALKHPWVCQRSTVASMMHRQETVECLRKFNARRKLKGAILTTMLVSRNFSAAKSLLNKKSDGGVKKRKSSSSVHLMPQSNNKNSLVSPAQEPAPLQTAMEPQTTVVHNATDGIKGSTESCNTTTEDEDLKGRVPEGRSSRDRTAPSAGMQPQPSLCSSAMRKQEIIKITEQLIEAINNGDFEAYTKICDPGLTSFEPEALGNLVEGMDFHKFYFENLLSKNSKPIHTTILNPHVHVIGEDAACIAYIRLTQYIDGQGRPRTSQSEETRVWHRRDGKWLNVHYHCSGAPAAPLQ
Assay [3] addresses T2, Mitogen-activated protein kinase kinase kinase 5 (Homo sapiens, UniProt Q99683).
T2 sequence (Q99683 whole entry): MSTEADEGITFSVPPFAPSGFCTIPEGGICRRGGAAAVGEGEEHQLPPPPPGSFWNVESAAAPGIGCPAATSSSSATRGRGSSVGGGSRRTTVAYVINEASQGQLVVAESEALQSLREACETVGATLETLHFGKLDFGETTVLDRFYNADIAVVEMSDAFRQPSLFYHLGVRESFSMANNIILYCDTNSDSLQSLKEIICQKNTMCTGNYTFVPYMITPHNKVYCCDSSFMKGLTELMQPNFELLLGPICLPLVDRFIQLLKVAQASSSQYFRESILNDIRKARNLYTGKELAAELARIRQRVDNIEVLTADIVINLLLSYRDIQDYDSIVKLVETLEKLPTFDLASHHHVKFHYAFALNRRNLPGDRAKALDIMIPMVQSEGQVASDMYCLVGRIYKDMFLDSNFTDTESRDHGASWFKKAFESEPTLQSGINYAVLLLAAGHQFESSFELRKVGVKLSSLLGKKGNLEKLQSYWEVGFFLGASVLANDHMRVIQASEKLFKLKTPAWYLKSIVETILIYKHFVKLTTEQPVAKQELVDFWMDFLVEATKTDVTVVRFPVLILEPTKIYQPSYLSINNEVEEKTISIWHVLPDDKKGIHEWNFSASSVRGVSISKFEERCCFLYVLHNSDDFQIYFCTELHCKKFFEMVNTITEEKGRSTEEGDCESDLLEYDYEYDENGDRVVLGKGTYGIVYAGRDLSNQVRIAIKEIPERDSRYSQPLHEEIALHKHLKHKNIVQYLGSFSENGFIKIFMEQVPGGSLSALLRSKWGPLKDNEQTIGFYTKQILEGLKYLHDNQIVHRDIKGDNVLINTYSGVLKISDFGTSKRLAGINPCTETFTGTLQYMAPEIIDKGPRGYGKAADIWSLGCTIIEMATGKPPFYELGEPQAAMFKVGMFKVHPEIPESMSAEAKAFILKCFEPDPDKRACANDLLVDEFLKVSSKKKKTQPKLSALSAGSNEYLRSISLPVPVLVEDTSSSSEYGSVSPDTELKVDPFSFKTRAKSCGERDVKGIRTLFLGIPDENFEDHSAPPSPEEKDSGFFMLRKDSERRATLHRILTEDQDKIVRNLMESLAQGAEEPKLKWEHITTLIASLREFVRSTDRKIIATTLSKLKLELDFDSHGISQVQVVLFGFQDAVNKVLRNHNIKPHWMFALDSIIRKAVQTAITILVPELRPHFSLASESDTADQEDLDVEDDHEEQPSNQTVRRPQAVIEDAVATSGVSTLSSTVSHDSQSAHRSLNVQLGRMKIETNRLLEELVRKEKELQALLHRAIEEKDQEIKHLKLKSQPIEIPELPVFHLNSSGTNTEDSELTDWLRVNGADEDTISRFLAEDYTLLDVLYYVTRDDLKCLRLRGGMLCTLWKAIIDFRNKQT

A further assay concerns the target T3, Pyridoxal kinase (Homo sapiens, UniProt O00764).
T3 sequence (O00764 whole entry): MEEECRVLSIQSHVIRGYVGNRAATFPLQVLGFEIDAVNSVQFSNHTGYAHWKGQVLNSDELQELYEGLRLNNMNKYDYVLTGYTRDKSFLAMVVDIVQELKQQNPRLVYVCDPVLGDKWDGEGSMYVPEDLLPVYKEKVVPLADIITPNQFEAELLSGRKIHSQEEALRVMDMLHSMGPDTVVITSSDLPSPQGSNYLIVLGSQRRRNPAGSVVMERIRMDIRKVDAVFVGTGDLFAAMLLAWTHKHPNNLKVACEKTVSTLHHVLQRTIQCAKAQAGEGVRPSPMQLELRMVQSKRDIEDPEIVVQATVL

Molecules are shown by their SMILES. Calls of active or inactive are those of the source. A value given as a limit tells only on which side of the number the result lay.
Further: in the data inactive means no Kd found up to 30 µM.

On to `NC(=O)c1ccc(N(C(N)=O)c2c(F)cccc2F)nc1-c1ccc(F)cc1F` [VX-702], for which the Kd (in assay [1]; in assay [2]; in assay [3]; at Pyridoxal kinase) was > 30 µM (inactive) in each case.
Take `Cc1cc(-c2cc(OC(=O)c3ccccc3)ccc2Cl)cc2nnc(Nc3ccc(OCCN4CCCC4)cc3)nc12` [TG100-801]: the Kd (in assay [1]; in assay [2]; in assay [3]; at Pyridoxal kinase) was > 30 µM (inactive) each time.
Take `O=C(Nc1ccc(OC(F)(F)F)cc1)c1sccc1NCc1ccnc2ccccc12` [OSI-930]: the Kd (in assay [1]; in assay [2]; in assay [3]; at Pyridoxal kinase) was > 30 µM (inactive) each time.
Consider `COc1ccc(-c2ccc3ncc4c(c3c2)n(-c2ccc(N3CCNCC3)c(C(F)(F)F)c2)c(=O)n4C)cn1` [BGT-226 FREE BASE], for which the Kd (in assay [1]; in assay [2]; in assay [3]; on Pyridoxal kinase) was > 30 µM (inactive) throughout.
Take `CNC(=O)c1ccc(Nc2ncc(C(F)(F)F)c(NCc3nccnc3N(C)S(C)(=O)=O)n2)cc1` [DEFACTINIB]: the Kd (in assay [1]; in assay [2]; in assay [3]; at Pyridoxal kinase) was > 30 µM (inactive) throughout.
Regarding `Cc1cc(C(=O)Nc2cc(Oc3ccc4nc(NC(=O)C5CC5)cn4n3)ccc2C)n(C)n1` [TAK-593], the equilibrium dissociation constant (Kd) in assay [1] was 0.365 µM (active); in assay [2], > 30 µM (inactive); in assay [3] it was > 30 µM (inactive); at Pyridoxal kinase, > 30 µM (inactive).
Regarding `O=C(O)c1ccc2c(c1)nc(Nc1cccc(Cl)c1)c1ccncc12` [SILMITASERTIB], the Kd (in assay [1]; in assay [2]; in assay [3]; on Pyridoxal kinase) was > 30 µM (inactive) throughout.
With `CCN(CCCOc1ccc2c(Nc3cc(CC(=O)Nc4cccc(F)c4)n[nH]3)ncnc2c1)CCOP(=O)(O)O` [BARASERTIB], the Kd (in assay [1]; in assay [2]; in assay [3]; at Pyridoxal kinase) was > 30 µM (inactive) each time.
As for `c1cc(OCCN2CCCCC2)cc(-c2n[nH]c3ccc(-c4nc[nH]n4)cc23)c1` [CC-401], the Kd (in assay [1]; in assay [2]; in assay [3]; on Pyridoxal kinase) was > 30 µM (inactive) throughout.
`O=S(=O)(c1cccc2c(O)nccc12)N1CCCNCC1` [HYDROXYFASUDIL]: the Kd (in assay [1]; in assay [2]; in assay [3]; on Pyridoxal kinase) was > 30 µM (inactive) each time.
With `CCN1CCN(Cc2ccc(Nc3ncc(F)c(-c4cc(F)c5nc(C)n(C(C)C)c5c4)n3)nc2)CC1` [ABEMACICLIB], the Kd in assay [1] is > 30 µM (inactive); in assay [2] it was 0.018 µM (active); in assay [3] it was > 30 µM (inactive); on Pyridoxal kinase, > 30 µM (inactive).
In the case of `C=CC(=O)Nc1cccc(Nc2nc(Nc3ccc(N4CCN(C(C)=O)CC4)cc3OC)ncc2C(F)(F)F)c1` [ROCILETINIB], the Kd (in assay [1]; in assay [2]; in assay [3]; on Pyridoxal kinase) was > 30 µM (inactive) in each case.
With `O=c1[nH]c([C@@H]2CCCN2)nc2c1oc1ccc(Cl)cc12`, the Kd (in assay [1]; in assay [2]; in assay [3]; at Pyridoxal kinase) was > 30 µM (inactive) each time.
`Cc1c(Cn2c(C)nc3c(C(=O)O)cc(N4CCOCC4)cc32)cccc1C(F)(F)F` [GSK-2636771]: the Kd (in assay [1]; in assay [2]; in assay [3]; on Pyridoxal kinase) was > 30 µM (inactive) each time.
As to `COc1cc2ncnc(Nc3ccc(O)cc3)c2cc1OC` [WHI-P131], the Kd (in assay [1]; in assay [2]; in assay [3]; on Pyridoxal kinase) was > 30 µM (inactive) each time.
Take `Cn1c(=O)c(F)c(Nc2ccc(I)cc2F)c2c(=O)n(C[C@@H](O)CO)cnc21` [TAK-733]: the Kd (in assay [1]; in assay [2]; in assay [3]; at Pyridoxal kinase) was > 30 µM (inactive) in each case.
For `COc1cccc(Nc2ncnn3ccc(CN4CC[C@@H](N)[C@H](O)C4)c23)c1` [BMS-690514], the Kd in assay [1] is > 30 µM (inactive); in assay [2], 0.738 µM (active); in assay [3], > 30 µM (inactive); at Pyridoxal kinase it was > 30 µM (inactive).
For `S=C(NCc1ccc2c(c1)OCO2)N1CCN(c2ncnc3c2oc2ccccc23)CC1` [AMUVATINIB], the Kd (in assay [1]; in assay [2]; in assay [3]; at Pyridoxal kinase) was > 30 µM (inactive) throughout.
Turning to `C=CC(=O)Nc1cc(Nc2nccc(-c3cn(C)c4ccccc34)n2)c(OC)cc1N(C)CCN(C)C` [OSIMERTINIB], the Kd (in assay [1]; in assay [2]; in assay [3]; on Pyridoxal kinase) was > 30 µM (inactive) in each case.
Consider `Cn1cc(-c2[nH]c3cc(NC(=O)[C@H](N)C4CCCCC4)cc4c3c2C=NNC4=O)cn1`, for which the Kd (in assay [1]; in assay [2]; in assay [3]; on Pyridoxal kinase) was > 30 µM (inactive) throughout.
